The target of assay [1] is Poly [ADP-ribose] polymerase 1 (Homo sapiens, UniProt P09874).
Description: The compound was tested for poly(ADP-ribose)-polymerase (PARP) inhibition
Assay [2] can be described thus: poly(ADP-ribose)-polymerase (PARP) inhibition.

Sequence of Poly [ADP-ribose] polymerase 1 (P09874 whole entry): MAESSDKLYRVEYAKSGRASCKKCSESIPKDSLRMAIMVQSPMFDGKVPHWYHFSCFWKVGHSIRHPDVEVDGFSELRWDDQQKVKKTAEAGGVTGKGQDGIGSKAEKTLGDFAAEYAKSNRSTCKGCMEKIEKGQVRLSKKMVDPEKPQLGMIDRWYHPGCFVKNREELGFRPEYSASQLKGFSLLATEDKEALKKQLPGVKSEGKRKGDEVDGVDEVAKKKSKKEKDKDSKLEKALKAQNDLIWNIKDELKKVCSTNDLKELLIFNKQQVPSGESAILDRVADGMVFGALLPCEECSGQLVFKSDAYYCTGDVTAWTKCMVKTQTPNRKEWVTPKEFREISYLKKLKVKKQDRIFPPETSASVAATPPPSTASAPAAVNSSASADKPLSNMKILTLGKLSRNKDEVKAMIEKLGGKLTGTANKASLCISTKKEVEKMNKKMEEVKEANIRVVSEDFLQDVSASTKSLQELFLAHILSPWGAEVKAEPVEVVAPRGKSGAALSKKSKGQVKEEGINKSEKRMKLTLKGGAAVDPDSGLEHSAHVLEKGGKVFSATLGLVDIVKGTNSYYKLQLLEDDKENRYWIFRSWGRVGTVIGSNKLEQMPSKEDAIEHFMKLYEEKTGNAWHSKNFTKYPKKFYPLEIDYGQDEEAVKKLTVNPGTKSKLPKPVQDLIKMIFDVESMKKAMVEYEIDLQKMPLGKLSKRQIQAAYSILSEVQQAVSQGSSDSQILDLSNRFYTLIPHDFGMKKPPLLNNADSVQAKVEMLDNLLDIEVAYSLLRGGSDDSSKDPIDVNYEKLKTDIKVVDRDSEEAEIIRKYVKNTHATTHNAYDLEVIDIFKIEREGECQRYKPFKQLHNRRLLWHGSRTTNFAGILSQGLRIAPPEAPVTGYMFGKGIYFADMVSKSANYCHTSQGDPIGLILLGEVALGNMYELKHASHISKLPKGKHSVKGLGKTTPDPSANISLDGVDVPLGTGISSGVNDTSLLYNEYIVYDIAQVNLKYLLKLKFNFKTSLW

Take `NC(=O)c1ccc(Cl)cc1`: in assay [1], it took 300 µM to reach half-maximal inhibition (IC50).
In assay [1], `CN(C)c1cccc(C(N)=O)c1` had an IC50 of 120 µM.
In assay [1], `Cc1cccc(C(N)=O)c1` had an IC50 of 19 µM.
For `NC(=O)c1ccc(O)cc1`, in assay [1], the IC50 stood at 280 µM.
Take `Cc1cccc2c(O)nc(-c3ccc(C#N)cc3)nc12`: the midpoint of inhibition in assay [2], the IC50, lay at 0.27 µM.
In the case of `COc1cccc2c(O)nc(-c3ccc(C(F)(F)F)cc3)nc12`, the IC50 in assay [2] came to 39 µM.
As to `Cc1cccc2c(O)nc(-c3ccccc3)nc12`, in assay [2], half-maximal inhibition (IC50) required 0.87 µM.
The same measure, in the same setting: to `COc1cccc2c(O)nc(-c3ccc([N+](=O)[O-])cc3)nc12` belongs 0.85 µM; to `Cc1cccc2c(O)nc(-c3ccc(O)cc3)nc12`, 0.22 µM.
In the case of `NC(=O)c1ccc(F)cc1`, in assay [1], the IC50 stood at 200 µM.
`NC(=O)c1cccc(F)c1` came in with an IC50 in assay [1] of 20 µM.
`Nc1ccc(-c2nc(O)c3cccc(O)c3n2)cc1` gave an IC50 in assay [2] of 0.52 µM.
The compound `COc1cccc2c(O)nc(-c3ccccc3)nc12` gave an IC50 in assay [2] of 4.2 µM.
On to `COc1ccc(-c2nc(O)c3cccc(C)c3n2)cc1`, for which, in assay [2], the IC50 is 0.19 µM.
In turn, `NC(=O)c1ccc(N)cc1` had an IC50 in assay [1] of 1800 µM.
Turning to `O=[N+]([O-])c1ccc(-c2nc(O)c3cccc(O)c3n2)cc1`, the IC50 in assay [2] stood at 0.23 µM.
In assay [1], `NC(=O)c1cccc([N+](=O)[O-])c1` came in with an IC50 of 160 µM.
`NC(=O)c1ccc(Br)cc1`: the IC50 in assay [1] turned out to be 2200 µM.
In assay [2], `COc1cccc2c(O)nc(-c3ccc(C#N)cc3)nc12` yielded a concentration for half-maximal inhibition (IC50) of 1.34 µM.
On to `NC(=O)c1cccc(O)c1`, for which the IC50 in assay [1] came out at 9.1 µM.
On the same count and under the same terms, the figure for `O=c1[nH]c2ccccc2c2ccccc12` is 0.3 µM; for `O=c1[nH]c2ccc([N+](=O)[O-])cc2c2ccccc12` it is 0.35 µM.
Compound `Cc1cccc2c(O)nc(-c3ccc(N)cc3)nc12` returned an IC50 in assay [2] of 0.44 µM.
`NC(=O)c1ccccc1` [BENZAMIDE] came in with an IC50 in assay [1] of 22 µM.
With `O=c1[nH]ncc2ccccc12` [PHTHALAZINONE], in assay [1], the IC50 stood at 12 µM.
In assay [1], `O=c1[nH]cnc2ccccc12` [QUINAZOLINONE] showed an IC50 of 9.5 µM.

For the origin of these results see ChEMBL document CHEMBL1134673, “Modeling of poly(ADP-ribose)polymerase (PARP) inhibitors. Docking of ligands and quantitative structure-activity relationship analysis” (J Med Chem, 2001).
